Experimental data from the NIST ThermoML archive (doi:10.1021/acs.jced.5b00802).
Numbers after ± are expanded uncertainties.

What was measured:
[1] = 101.33 kPa, Liquid; for speed of sound: Sing-around technique in a fixed-path interferometer; for mass density: Vibrating tube method
[2] = refractive index (Na D-line) (dimensionless); details: 101.33 kPa, Liquid, Standard Abbe refractometry
[3] = xn = mol fraction of the nth substance listed; details: 298.15 K, 100 kPa, Liquid; for speed of sound: Frequency=3 MHz, Sing-around technique in a fixed-path interferometer; for mass density: Vibrating tube method
[4] = refractive index (Na D-line) (dimensionless); xn = mol fraction of the nth substance listed; details: 298.15 K, 100 kPa, Liquid, Standard Abbe refractometry

CCCCCCN [1-hexanamine]
Details	mass density, 293.15 K [kg/m3]	mass density, 298.15 K [kg/m3]	mass density, 303.15 K [kg/m3]	refractive index, 298.15 K	speed of sound, 293.15 K [m/s]	speed of sound, 298.15 K [m/s]	speed of sound, 303.15 K [m/s]
[1]	764.423 ± 1.8	760.073 ± 1.8	755.848 ± 1.8	–	1324 ± 1.1	1303.6 ± 1.1	1283.6 ± 1.1
[2]	–	–	–	1.41577 ± 0.0043	–	–	–

CCCCNCCCC [dibutylamine]
Details	mass density, 293.15 K [kg/m3]	mass density, 298.15 K [kg/m3]	mass density, 303.15 K [kg/m3]	refractive index, 293.15 K	refractive index, 298.15 K	refractive index, 303.15 K	speed of sound, 293.15 K [m/s]	speed of sound, 298.15 K [m/s]	speed of sound, 303.15 K [m/s]
[1]	759.695 ± 1.8	755.525 ± 1.8	751.458 ± 1.8	–	–	–	1261.1 ± 1.1	1241.5 ± 1.1	1222.5 ± 1.1
[2]	–	–	–	1.41724 ± 0.0043	1.41488 ± 0.0043	1.41253 ± 0.0043	–	–	–

CCCNCCC [dipropylamine]
Details	mass density, 293.15 K [kg/m3]	mass density, 298.15 K [kg/m3]	mass density, 303.15 K [kg/m3]	refractive index, 293.15 K	refractive index, 298.15 K	refractive index, 303.15 K	speed of sound, 293.15 K [m/s]	speed of sound, 298.15 K [m/s]	speed of sound, 303.15 K [m/s]
[1]	738.194 ± 1.8	733.618 ± 1.8	729.098 ± 1.8	–	–	–	1209.4 ± 1.4	1187.7 ± 1.4	1167.2 ± 1.4
[2]	–	–	–	1.40432 ± 0.0042	1.40139 ± 0.0042	1.39883 ± 0.0042	–	–	–

CN(C)C=O [dimethylformamide]
Details	mass density, 293.15 K [kg/m3]	mass density, 298.15 K [kg/m3]	mass density, 303.15 K [kg/m3]	refractive index, 293.15 K	refractive index, 298.15 K	refractive index, 303.15 K	speed of sound, 293.15 K [m/s]	speed of sound, 298.15 K [m/s]	speed of sound, 303.15 K [m/s]
[1]	948.881 ± 2.3	944.081 ± 2.3	939.361 ± 2.3	–	–	–	1476.8 ± 1.2	1457.2 ± 1.2	1438.2 ± 1.2
[2]	–	–	–	1.43055 ± 0.0043	1.42828 ± 0.0043	1.42603 ± 0.0043	–	–	–

CCCCNCCCC [dibutylamine] + CN(C)C=O
Details	mass density, [3] [kg/m3]	refractive index, [4]	speed of sound, [3] [m/s]
x2 = 0.0642	761.171 ± 1.8	–	1246.4 ± 1.1
x2 = 0.1038	–	1.41553 ± 0.0043	–
x2 = 0.1134	765.782 ± 1.9	–	1250.5 ± 1.1
x2 = 0.1647	770.882 ± 1.9	–	1255 ± 1.1
x2 = 0.2076	–	1.41628 ± 0.0043	–
x2 = 0.2121	775.872 ± 1.9	–	1259.5 ± 1.1
x2 = 0.2734	782.835 ± 1.9	–	1266.1 ± 1.1
x2 = 0.3213	788.624 ± 1.9	–	1271.6 ± 1.2
x2 = 0.3608	–	1.41761 ± 0.0043	–
x2 = 0.4114	800.702 ± 1.9	–	1283.5 ± 1.2
x2 = 0.4526	806.766 ± 2	–	1289.7 ± 1.2
x2 = 0.4897	–	1.419 ± 0.0043	–
x2 = 0.5072	815.344 ± 2	–	1298.6 ± 1.2
x2 = 0.5574	823.977 ± 2	–	1307.9 ± 1.2
x2 = 0.5933	–	1.42034 ± 0.0043	–
x2 = 0.5996	831.688 ± 2	–	1316.3 ± 1.2
x2 = 0.6514	842.013 ± 2.1	–	1328.1 ± 1.2
x2 = 0.6869	849.571 ± 2.1	–	1336.8 ± 1.2
x2 = 0.688	–	1.42178 ± 0.0043	–
x2 = 0.7361	860.924 ± 2.1	–	1350.4 ± 1.2
x2 = 0.7709	–	1.42323 ± 0.0043	–
x2 = 0.7904	874.714 ± 2.1	–	1367.5 ± 1.3
x2 = 0.8398	–	1.42459 ± 0.0043	–
x2 = 0.8418	889.103 ± 2.2	–	1385.9 ± 1.3
x2 = 0.8921	904.666 ± 2.2	–	1406.1 ± 1.3
x2 = 0.8989	–	1.42587 ± 0.0043	–
x2 = 0.9471	923.65 ± 2.3	–	1431 ± 1.4
x2 = 0.9497	–	1.42706 ± 0.0043	–
x2 = 0.9738	–	1.42765 ± 0.0043	–

CCCCCCN [1-hexanamine] + CN(C)C=O
Details	mass density, [3] [kg/m3]	refractive index, [4]	speed of sound, [3] [m/s]
x2 = 0.0506	765.582 ± 1.9	1.41613 ± 0.0043	1307.1 ± 1.1
x2 = 0.0992	771.096 ± 1.9	–	1310.8 ± 1.1
x2 = 0.1725	779.897 ± 1.9	1.41707 ± 0.0043	1316.7 ± 1.1
x2 = 0.2548	790.546 ± 1.9	1.41779 ± 0.0043	1324.2 ± 1.2
x2 = 0.3476	803.611 ± 1.9	1.4187 ± 0.0043	1333.7 ± 1.2
x2 = 0.4461	818.861 ± 2	1.4198 ± 0.0043	1345.5 ± 1.2
x2 = 0.55	836.751 ± 2	1.42107 ± 0.0043	1360.1 ± 1.2
x2 = 0.6022	846.551 ± 2.1	–	1368.3 ± 1.2
x2 = 0.6558	–	1.42257 ± 0.0043	–
x2 = 0.7056	867.688 ± 2.1	–	1387.1 ± 1.2
x2 = 0.7573	–	1.42411 ± 0.0043	–
x2 = 0.7996	889.217 ± 2.2	–	1406.8 ± 1.2
x2 = 0.8492	901.602 ± 2.2	1.42564 ± 0.0043	1418.4 ± 1.2
x2 = 0.8982	914.549 ± 2.2	–	1430.4 ± 1.2
x2 = 0.953	929.99 ± 2.3	1.42747 ± 0.0043	1444.7 ± 1.2

CCCCN [1-butanamine]
Details	mass density, 293.15 K [kg/m3]	mass density, 298.15 K [kg/m3]	mass density, 303.15 K [kg/m3]	refractive index, 293.15 K	refractive index, 298.15 K	refractive index, 303.15 K	speed of sound, 293.15 K [m/s]	speed of sound, 298.15 K [m/s]	speed of sound, 303.15 K [m/s]
[1]	737.048 ± 1.8	732.231 ± 1.8	727.452 ± 1.8	–	–	–	1268.3 ± 1.4	1246 ± 1.4	1224.6 ± 1.4
[2]	–	–	–	1.4006 ± 0.0042	1.39786 ± 0.0042	1.395 ± 0.0042	–	–	–
